Source: patent publication EP3895711A1, “CYCLOISOMALTOTETRAOSE, CYCLOISOMALTOTETRAOSE PRODUCTION ENZYME, AND PRODUCTION METHODS AND USES THEREOF” (Hayashibara Co., Ltd., priority 2018, dated 2020)

Columns and labels:
[1] = tested on: cycloisomaltotetraose-forming enzyme from Agreia sp. D1110 (NITE BP-02815); experiment: Substrate specificity of cycloisomaltotetraose-forming enzyme (TLC of reaction mixtures); format: biochemical; settings: substrate 1% (w/v), 20 units/g-solid of enzyme, pH 6.0, 40°C, 24 hours; also: key: - : Not formed; + : Slightly formed; ++ : Formed; +++ : Significantly formed
Excerpt: Substrate specificity of cycloisomaltotetraose-forming enzyme was investigated using various saccharides as substrates. Aqueous solutions containing D-glucose, maltose, isomaltose, panose, isomaltotriose, isomaltotetraose, isomaltopentaose, isomaltohexaose, isomaltoheptaose, dextran T10 (average molecular weight: 10,000, commercialized by Pharmacosmos A/s., Denmark), dextran T70 (average molecular weight: 70,000, commercialized by Pharmacosmos A/s., Denmark), or dextran T2000 (average molecular weight: 2,000,000, commercialized by Pharmacosmos A/s., Denmark) were prepared as substrate solutions. To each substrate solution, acetate buffer and calcium chloride were added to give final concentrations of 50 mM and 1 mM, respectively, and then resulting solutions were admixed with 20 units/g-solid of cycloisomaltotetraose-forming enzyme from Agreia sp. […] To examine the saccharides in each reaction mixture before and after the reaction, saccharides were separated by silica gel thin-layer chromatography (hereinafter, abbreviated as "TLC") using "[…] 60F254", a TLC aluminum plate (10 x 20 cm) and a solvent (2-propanol/1-butanol/water, volume ratio of 12:3:4) with two-times ascending method. The separated saccharides on the plate were detected by visualizing the spots with sulfate-methanol method, and the degree of forming cycloisomaltotetraose from each substrate and the products other than cycloisomaltotetraose were investigated.

[2] = tested on: cycloisomaltotetraose-forming enzyme from Agreia sp. D1110 (NITE BP-02815); experiment: Action of cycloisomaltotetraose-forming enzyme on isomaltopentaose (TLC); format: biochemical; settings: 1% (w/v) isomaltopentaose, 2.0 units/g-isomaltopentaose, pH 6.0, 40°C, 24 hours
Experimental: As a part of examining the substrate specificity of cycloisomaltotetraose-forming enzyme, the action of the enzyme on isomaltopentaose was investigated. To 0.5 mL of 50 mM acetate buffer (pH 6.0) containing 1% (w/v) of isomaltopentaose (prepared in Hayashibara Co., Ltd., Okayama, Japan, purity: 98.1% by weight) and 0.006% (w/v) hinokitiol as a preservative, 2.0 units/g-isomaltopentaose of a purified cycloisomaltotetraose-forming enzyme from Agreia sp. D1110 (NITE BP-02815), obtained by the method in Experiment 6, was added, and the resulting mixture was incubated at 40°C for 24 hours and then heated at 100°C for 10 min to inactivate the enzyme. To examine the reaction products in the reaction mixture, saccharides were separated by TLC using "KIESELGEL 60", a TLC aluminum plate (10 x 20 cm) and a solvent (acetonitrile/water/ethyl acetate/1-propanol, volume ratio of 85:70:20:50) and two-times ascending method. The separated saccharides on the plate were detected by visualizing the spots with sulfate-methanol method, and the reaction products formed from isomaltopentaose were investigated.

[3] = Digestivity test using small intestinal mucosal enzyme; format: in vitro ADME; settings: rat, small intestine mucosal enzyme, 1% by weight, pH 6.0, 50 units/g-cycloisomaltotetraose, 37°C, read-out: residual rate (%) of cycloisomaltotetraose after the enzymatic reaction
Experimental: To the substrate solution, 50 units/g-cycloisomaltotetraose, as maltose-hydrolyzing activity, of small intestine mucosal enzyme (α-glucosidase) prepared from rat small intestine acetone powder, commercialized by Sigma-Aldrich Co., was added, and the resulting mixture was incubated at 37°C for 24 hours and then heated at 100°C for 10 min to inactivate the enzyme. The amounts of cycloisomaltotetraose in the solution before and after the reaction were determined by HPLC, and the residual rate (%) of cycloisomaltotetraose after the enzymatic reaction, i.e., (the amount after the reaction/the amount before the reaction) x 100, was measured.

[4] = Thermal stability of cycloisomaltotetraose in aqueous solution; format: physicochemical; settings: 7% (w/v) aqueous solution, 120°C
Experimental: An aqueous cycloisomaltotetraose solution with a solid concentration of 7% (w/v) was prepared by dissolving the crystalline cycloisomaltotetraose preparation with a purity of 99.5% by weight, obtained in Experiment 3-1. Eight milliliters each of the aqueous solution was taken in a glass centrifuge tube with a screw cap, sealed, and then heated for 30 to 90 min at 120°C. The solutions before heating and those after heating for various times were subjected to the measurement for the degree of coloring and for the cycloisomaltotetraose purity by HPLC method. The degree of coloring was defined as the absorbance at 480 nm measured by using a 1-cm cell.

[5] = pH stability of cycloisomaltotetraose; format: physicochemical; settings: 4% (w/v), 100°C; for Degree of coloring (A480nm): 24 hours; for remaining at 24 h: read-out: Purity of cycloisomaltotetraose (% by weight)
Experimental: The crystalline cycloisomaltotetraose preparation obtained in Experiment 3-1 was dissolved in various buffers to make 7 kinds of aqueous cycloisomaltotetraose solutions with a cycloisomaltotetraose concentration of 4% (w/v), and with the pH adjusted to 3 to 9. Eight milliliters each of the aqueous solution was taken into a glass centrifuge tube with a screw cap, sealed, and heated at 100°C for 24 hours. After cooling them, the measurement for the degree of coloring degree of those aqueous solution and for the cycloisomaltotetraose purity were carried out in the same manner in Experiment 16.

α-glucosidase = target: T1, α-glucosidase (Aspergillus niger, UniProt P56526); experiment: Preliminary test: hydrolysis by α-glucosidase; format: biochemical; settings: preliminary test using a small amount of the reaction product
T1 construct: purchased Amano Enzyme Co., Ltd. TRANSGLUCOSIDASE L Amano
T1 sequence (P56526 26-985): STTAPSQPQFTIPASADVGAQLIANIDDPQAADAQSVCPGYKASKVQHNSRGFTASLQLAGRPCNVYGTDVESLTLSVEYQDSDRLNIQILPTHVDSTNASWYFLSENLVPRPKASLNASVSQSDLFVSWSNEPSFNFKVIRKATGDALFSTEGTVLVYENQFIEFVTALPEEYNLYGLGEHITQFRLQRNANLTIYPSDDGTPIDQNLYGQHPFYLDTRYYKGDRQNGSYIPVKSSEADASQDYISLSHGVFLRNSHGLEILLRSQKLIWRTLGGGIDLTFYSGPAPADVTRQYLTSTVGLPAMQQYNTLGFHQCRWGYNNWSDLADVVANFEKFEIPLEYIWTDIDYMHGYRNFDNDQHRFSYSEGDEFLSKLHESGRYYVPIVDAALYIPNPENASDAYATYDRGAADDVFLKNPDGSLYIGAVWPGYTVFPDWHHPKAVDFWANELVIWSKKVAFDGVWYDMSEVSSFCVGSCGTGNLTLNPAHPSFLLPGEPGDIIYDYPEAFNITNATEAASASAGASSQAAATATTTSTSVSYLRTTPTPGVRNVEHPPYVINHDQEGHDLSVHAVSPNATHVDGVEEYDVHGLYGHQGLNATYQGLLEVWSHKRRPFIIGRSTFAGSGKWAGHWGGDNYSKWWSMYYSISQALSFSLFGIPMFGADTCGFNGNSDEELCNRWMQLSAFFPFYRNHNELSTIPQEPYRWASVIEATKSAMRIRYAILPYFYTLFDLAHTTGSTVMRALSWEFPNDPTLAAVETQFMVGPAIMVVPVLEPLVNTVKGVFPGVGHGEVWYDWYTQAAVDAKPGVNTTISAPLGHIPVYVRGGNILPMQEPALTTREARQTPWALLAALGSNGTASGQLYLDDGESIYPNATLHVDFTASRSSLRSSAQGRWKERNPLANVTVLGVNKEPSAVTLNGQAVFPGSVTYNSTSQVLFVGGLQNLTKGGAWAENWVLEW
Experimental: (§1) The enzymatic reaction product containing Unknown Saccharide I, obtained in Experiment 1-2, was adjusted to pH 5.0, admixed with 100 U/g-solid of "TRANSGLUCOSIDASE L Amano", α-glucosidase produced by Amano Enzyme Co., Ltd., and 1,000 U/g-solid of glucoamylase commercialized by Nagase ChemteX Co., Ltd., and then reacted at 50°C for 4 days. After the reaction, the reaction was stopped by heating the reaction mixture at about 100°C for 10 min. The saccharides in the resulting reaction mixture were analyzed by analytical high-performance liquid chromatography (hereinafter, abbreviated as "analytical HPLC"). As a result, D-glucose and Unknown Saccharide I were detected at elution times of 58.7 min and 49.4 min, respectively. The saccharide composition of the reaction mixture is 30.0% (w/w) of D-glucose, 65.5% (w/w) of Unknown Saccharide I, and 4.5% (w/w) of partial dextran hydrolysates containing isomaltooligosaccharides.

glucoamylase = experiment: Preliminary test: hydrolysis by glucoamylase; format: biochemical; settings: preliminary test using a small amount of the reaction product
Experimental: as §1

[6] = Preliminary test: alkaline treatment; format: physicochemical; settings: preliminary test using a small amount of the reaction product

Q: For OC[C@H]1O[C@H](O[C@H]2[C@H](O)[C@@H](O)C(O)O[C@@H]2CO)[C@H](O)[C@@H](O)[C@@H]1O (mixture of isomers) [Maltose, maltose], which Formation of cycloisomaltotetraose [1] is on record?
A: -

Q: For OC[C@H]1OC(O)[C@H](O)[C@@H](O)[C@@H]1O (stereo partly drawn) [D-Glucose, D-glucose], which Formation of cycloisomaltotetraose [1] is on record?
A: -

Q: For OC[C@H]1O[C@H](OC[C@H]2O[C@H](OC[C@H]3O[C@H](OC[C@H]4O[C@H](OC[C@H]5O[C@H](OC[C@H]6O[C@H](OC[C@H]7OC(O)[C@H](O)[C@@H](O)[C@@H]7O)[C@H](O)[C@@H](O)[C@@H]6O)[C@H](O)[C@@H](O)[C@@H]5O)[C@H](O)[C@@H](O)[C@@H]4O)[C@H](O)[C@@H](O)[C@@H]3O)[C@H](O)[C@@H](O)[C@@H]2O)[C@H](O)[C@@H](O)[C@@H]1O (stereo partly drawn) [Isomaltoheptaose, isomaltoheptaose], which Formation of cycloisomaltotetraose [1] is on record?
A: +++

Q: With OC[C@H]1O[C@H](OC[C@H]2O[C@H](OC[C@H]3O[C@H](OC[C@H]4O[C@H](OC[C@H]5O[C@H](OC[C@H]6OC(O)[C@H](O)[C@@H](O)[C@@H]6O)[C@H](O)[C@@H](O)[C@@H]5O)[C@H](O)[C@@H](O)[C@@H]4O)[C@H](O)[C@@H](O)[C@@H]3O)[C@H](O)[C@@H](O)[C@@H]2O)[C@H](O)[C@@H](O)[C@@H]1O (stereo partly drawn) [Isomaltohexaose, isomaltohexaose] as the compound, how does the Formation of cycloisomaltotetraose [1] read?
A: +++

Q: Which Formation of cycloisomaltotetraose [1] does the source give for OC[C@H]1O[C@H](OC[C@H]2O[C@H](OC[C@H]3O[C@H](OC[C@H]4O[C@H](OC[C@H]5OC(O)[C@H](O)[C@@H](O)[C@@H]5O)[C@H](O)[C@@H](O)[C@@H]4O)[C@H](O)[C@@H](O)[C@@H]3O)[C@H](O)[C@@H](O)[C@@H]2O)[C@H](O)[C@@H](O)[C@@H]1O (stereo partly drawn) [Isomaltopentaose, isomaltopentaose] here?
A: ++

Q: And the “reaction products formed from isomaltopentaose” value [2]?
A: produces cycloisomaltotetraose with isomaltotetraose, also slightly isomaltotriose, isomaltose, glucose and high molecular glucans

Q: Which Formation of cycloisomaltotetraose [1] does the source give for OC[C@H]1O[C@H](OC[C@H]2OC(O)[C@H](O)[C@@H](O)[C@@H]2O)[C@H](O)[C@@H](O)[C@@H]1O (stereo partly drawn) [Isomaltose, isomaltose] here?
A: -

Q: With OC[C@H]1O[C@H](OC[C@H]2O[C@H](OC[C@H]3O[C@H](OC[C@H]4OC(O)[C@H](O)[C@@H](O)[C@@H]4O)[C@H](O)[C@@H](O)[C@@H]3O)[C@H](O)[C@@H](O)[C@@H]2O)[C@H](O)[C@@H](O)[C@@H]1O (stereo partly drawn) [Isomaltotetraose, isomaltotetraose] as the compound, how does the Formation of cycloisomaltotetraose [1] read?
A: +

Q: For OC[C@H]1O[C@H](OC[C@H]2O[C@H](OC[C@H]3OC(O)[C@H](O)[C@@H](O)[C@@H]3O)[C@H](O)[C@@H](O)[C@@H]2O)[C@H](O)[C@@H](O)[C@@H]1O (stereo partly drawn) [Isomaltotriose, isomaltotriose], which Formation of cycloisomaltotetraose [1] is on record?
A: -

Q: Which Formation of cycloisomaltotetraose [1] does the source give for OCC1OC(OCC2OC(OC3C(CO)OC(O)C(O)C3O)C(O)C(O)C2O)C(O)C(O)C1O (stereo not drawn) [Panose, panose] here?
A: -

Q: For O[C@@H]1[C@@H](O)[C@H]2OC[C@H]3O[C@H](OC[C@H]4O[C@H](OC[C@H]5O[C@H](OC[C@@H](O2)[C@H]1O)[C@H](O)[C@@H](O)[C@@H]5O)[C@H](O)[C@@H](O)[C@@H]4O)[C@H](O)[C@@H](O)[C@@H]3O [cycloisomaltotetraose, cyclo{→6)-α-D-glucopyranosyl-(1→6)-α-D-glucopyranosyl-(1→6)-α-D-glucopyranosyl-(1→6)-α-D-glucopyranosyl-(1→}], which remaining at 24 h [3] is on record?
A: 91.6%

Q: What about the “Degree of coloring (A480nm)” value ([4]; heating time 0 min) of the same compound?
A: 0.000 A480nm

Q: And the “Purity of cycloisomaltotetraose (% by weight)” value ([4]; heating time 0 min)?
A: 99.5 % by weight

Q: And the “Degree of coloring (A480nm)” value ([4]; heating time 30 min)?
A: 0.000 A480nm

Q: What about the “Degree of coloring (A480nm)” value ([4]; heating time 60 min) of the same compound?
A: 0.000 A480nm

Q: And the “Degree of coloring (A480nm)” value ([4]; heating time 90 min)?
A: 0.000 A480nm

Q: What about the remaining at 0.5 h ([4]; water, heating time 30 min, read-out: Purity of cycloisomaltotetraose (% by weight)) of the same compound?
A: 99.5%

Q: And the remaining at 1 h ([4]; water, heating time 60 min, read-out: Purity of cycloisomaltotetraose (% by weight))?
A: 99.5%

Q: And the remaining at 1.5 h ([4]; water, heating time 90 min, read-out: Purity of cycloisomaltotetraose (% by weight))?
A: 99.5%

Q: What about the “Degree of coloring (A480nm)” value ([5]; pH 3, Acetate buffer) of the same compound?
A: 0.000 A480nm

Q: What about the remaining at 24 h ([5]; pH 3, Acetate buffer) of the same compound?
A: 93.5%

Q: What about the “Degree of coloring (A480nm)” value ([5]; pH 4, Acetate buffer) of the same compound?
A: 0.000 A480nm

Q: And the remaining at 24 h ([5]; pH 4, Acetate buffer)?
A: 99.4%

Q: What about the “Degree of coloring (A480nm)” value ([5]; pH 5, Acetate buffer) of the same compound?
A: 0.000 A480nm

Q: And the remaining at 24 h ([5]; pH 5, Acetate buffer)?
A: 99.4%

Q: And the “Degree of coloring (A480nm)” value ([5]; pH 6, Tris-HCl buffer)?
A: 0.000 A480nm

Q: What about the remaining at 24 h ([5]; pH 6, Tris-HCl buffer) of the same compound?
A: 99.4%

Q: And the “Degree of coloring (A480nm)” value ([5]; pH 7, Tris-HCl buffer)?
A: 0.000 A480nm

Q: And the remaining at 24 h ([5]; pH 7, Tris-HCl buffer)?
A: 99.5%

Q: What about the “Degree of coloring (A480nm)” value ([5]; pH 8, Tris-HCl buffer) of the same compound?
A: 0.001 A480nm

Q: What about the remaining at 24 h ([5]; pH 8, Tris-HCl buffer) of the same compound?
A: 99.5%

Q: What about the “Degree of coloring (A480nm)” value ([5]; pH 9, Ammonium buffer) of the same compound?
A: 0.000 A480nm

Q: And the remaining at 24 h ([5]; pH 9, Ammonium buffer)?
A: 99.4%

Q: And the “hydrolysis by α-glucosidase” value (α-glucosidase)?
A: not hydrolyzed

Q: What about the hydrolysis by glucoamylase (glucoamylase) of the same compound?
A: not hydrolyzed

Q: And the “decomposition by alkaline treatment” value [6]?
A: not decomposed
